What was measured:
WEE1 kinase enzyme = WEE1 kinase enzyme (Homo sapiens (Human), UniProt P30291); assay: WEE1 IC50 determination, LanthaScreen Terbium Labeled TR-FRET kinase assay; assay type: biochemical; conditions: WEE1 enzyme 1 nM, ATP 10 μM
Protocol: IC50 values of compounds against WEE1 kinase enzyme were determined by LanthaScreen™ Terbium Labeled TR-FRET assay. Kinase assays were performed in 1X kinase buffer (#PV6135, Invitrogen, Life Technologies Grand Island, N.Y.) where total reaction volume was 10 μL in low-volume 384-well plates (#4511, Corning). Serially diluted compounds (3-fold) were incubated with WEE1 Enzyme (1 nM) (#PR7373A, Invitrogen, Life Technologies, Grand Island, N.Y.) for 10 min; a mixture of ATP (10 μM) (#A1852, Sigma, St. Louis, Mo.) and fluorescent-PolyGT substrate (200 nM) (#PV3610, Invitrogen, Life Technologies Grand Island, N.Y.) was added and incubated in dark at room temperature for 1 h. After 1 h, 10 μL stop solution containing Terbium labeled antibody (4 nM) (#PV3529, Invitrogen, Life Technologies Grand Island, N.Y.) and EDTA (#E5134, Sigma, St. Louis, Mo.) (20 mM) in TR-FRET dilution buffer (#PV3574, Invitrogen, Life Technologies Grand Island, N.Y.) was added. Readings were taken in a Synergy Neo Plate reader (BioTek, Winooski, Vt.) at single excitation of 340 nm and dual emission at 495 nm and 520 nm respectively.
The % activity of test samples was calculated as (Sample−Min)*100/(Max−Min). [Max: DMSO control, complete reaction with enzyme & DMSO and Min: No enzyme & DMSO].

A427 cells = assay: Cytotoxicity assay in A427 cell line (resazurin); assay type: cell-based; conditions: Homo sapiens, A-427; A427 lung epithelial cell line, 72 hr, inhibition of proliferation
Protocol: A427 (HTB-53; ATCC), a lung epithelial cell line, was seeded in medium (MEM, 41090101; Gibco) at a cell count of 1500 cells per 100 μL per well in a 96 well edge plate (167425; ThermoFisher). Cells were allowed to grow at 37° C. for 24 hr in 5% CO2 environment (culture conditions) in a Nuaire incubator (humidified). Serially diluted test compounds (100 μL) within the desired testing concentration ranges were added to the culture plate and the cells were further incubated in culture conditions for 72 hr. The experiment was terminated at the designated incubation time by replacing the medium with 100 μL of 1 mM of resazurin (R7017; Sigma) prepared in culture medium, and the plates were further incubated in culture conditions for 4-6 hr. Fluorescence was recorded using a multimodal plate reader (Biotek Synergy Neo) at an excitation wavelength of 535 nm and emission wavelength of 590 nm to obtain relative fluorescence units. Data were analysed as follows: the background fluorescence (blank containing only medium) value was subtracted from each reading and normalized with the vehicle control (DMSO treated cells) to obtain percent survival/proliferation. Percent survival was subtracted from 100 to get the percent inhibition of proliferation which was used to calculate IC50 values. Potency of compounds in other cell lines (such as A549, AsPc-1, Panc 10.05, A172, U-87MG) may be determined in an analogous manner.

PKMYT1 kinase = PKMYT1 kinase (Homo sapiens (Human), UniProt Q99640); assay: PKMYT1 IC50 determination, HotSpot Kinase Assay; assay type: biochemical; conditions: 10 μM ATP, 33P-ATP, Myelin Basic Protein substrate
Protocol: Inhibition of PKMYT1 kinase activity by test compounds was measured by the HotSpot Kinase Assay at Reaction Biology Corporation (Malvern, Pa.). Briefly, Myelin Basic Protein substrate was prepared in Reaction Buffer (20 mM Hepes (pH 7.5), 10 mM MgCl2, 1 mM EGTA, 0.01% Brij35, 0.02 mg/mL BSA, 0.1 mM Na3VO4, 2 mM DTT, 1% DMSO). PKMYT1 kinase was delivered into the substrate solution and gently mixed. Test compounds in 100% DMSO were added into the kinase reaction mixture by Acoustic technology (Echo550; nanoliter range) and incubated for 20 min at room temperature. ^33P-ATP was delivered into the reaction mixture to initiate the reaction. Reactions were carried out at 10 μM ATP. After a 2 hour incubation at room temperature, kinase activity was detected by P81 filter-binding method. […] A nonlinear regression model with a sigmoidal dose response and variable slope within GraphPad Prism (GraphPad Software, San Diego, Calif.) was used to calculate the IC50 value of individual test compounds.

Chain of WEE1 kinase enzyme (P30291 whole entry): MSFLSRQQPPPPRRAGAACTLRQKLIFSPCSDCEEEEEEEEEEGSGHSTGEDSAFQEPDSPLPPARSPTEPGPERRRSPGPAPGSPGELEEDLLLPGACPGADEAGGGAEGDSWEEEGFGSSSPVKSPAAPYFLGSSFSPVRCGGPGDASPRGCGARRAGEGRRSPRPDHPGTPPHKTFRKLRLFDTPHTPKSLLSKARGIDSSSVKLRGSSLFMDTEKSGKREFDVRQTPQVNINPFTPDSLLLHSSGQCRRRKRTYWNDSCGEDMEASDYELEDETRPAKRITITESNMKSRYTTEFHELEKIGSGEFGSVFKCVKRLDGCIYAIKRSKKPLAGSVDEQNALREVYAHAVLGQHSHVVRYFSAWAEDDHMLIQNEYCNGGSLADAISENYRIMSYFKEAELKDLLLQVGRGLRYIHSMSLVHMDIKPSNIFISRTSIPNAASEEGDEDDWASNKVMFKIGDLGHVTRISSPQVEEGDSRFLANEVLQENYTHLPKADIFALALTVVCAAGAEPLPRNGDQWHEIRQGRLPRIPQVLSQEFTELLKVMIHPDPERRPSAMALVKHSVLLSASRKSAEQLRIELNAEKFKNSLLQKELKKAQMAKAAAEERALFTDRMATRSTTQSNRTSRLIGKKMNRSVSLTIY
Chain of PKMYT1 kinase (Q99640 whole entry): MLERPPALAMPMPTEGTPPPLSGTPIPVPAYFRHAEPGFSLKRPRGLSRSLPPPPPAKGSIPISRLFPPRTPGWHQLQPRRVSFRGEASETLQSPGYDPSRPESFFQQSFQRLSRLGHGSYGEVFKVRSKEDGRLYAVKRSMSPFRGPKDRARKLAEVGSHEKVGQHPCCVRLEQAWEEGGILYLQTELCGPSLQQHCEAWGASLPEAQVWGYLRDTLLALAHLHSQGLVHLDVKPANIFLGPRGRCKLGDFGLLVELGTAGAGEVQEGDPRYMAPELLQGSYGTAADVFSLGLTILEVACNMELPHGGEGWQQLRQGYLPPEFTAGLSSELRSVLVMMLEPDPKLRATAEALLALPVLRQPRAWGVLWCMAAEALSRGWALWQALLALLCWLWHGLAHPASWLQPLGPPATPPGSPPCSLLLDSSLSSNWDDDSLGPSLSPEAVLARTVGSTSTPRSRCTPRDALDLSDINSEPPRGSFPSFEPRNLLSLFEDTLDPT

How did the IC50 (WEE1 kinase enzyme) turn out when `CC(C)(F)c1nc(-n2c3nc(Nc4ccc5c(c4)CCNC5(C)C)ncc3c(=O)n2C2CC2)ccc1F` [1.5, 2-cyclopropyl-6-((1,1-dimethyl-1,2,3,4-tetrahydroisoquinolin-6-yl)amino)-1-(5-fluoro-6-(2-fluoropropan-2-yl)pyridin-2-yl)-1,2-dihydro-3H-pyrazolo[3,4-d]pyrimidin-3-one] was run?
The IC50 was 5 nM.

And the IC50 (A427 cells)?
The IC50 was 7600 nM.

What about the IC50 (PKMYT1 kinase) of the same compound?
The IC50 was 5500 nM.

With `N#CC1(c2cccc(-n3c4nc(Nc5ccc6c(c5)CNCC6)ncc4c(=O)n3CC(F)(F)F)n2)CC1` [1.32, 1-(6-(3-oxo-6-(1,2,3,4-tetrahydroisoquinolin-7-ylamino)-2-(2,2,2-trifluoroethyl)-2,3-dihydro-1H-pyrazolo[3,4-d]pyrimidin-1-yl)pyridin-2-yl)cyclopropanecarbonitrile] as the compound, how does the IC50 (WEE1 kinase enzyme) read?
The IC50 was 8 nM.

What about the IC50 (A427 cells) of the same compound?
Its IC50 is 870 nM.

And the IC50 (PKMYT1 kinase)?
Its IC50 is 767 nM.

Which results are given for `CCn1c(=O)c2cnc(Nc3ccc4c(c3)CCNC4)nc2n1-c1cccc(C2(C#N)CC2)n1` [1.37, 1-(6-(2-ethyl-3-oxo-6-((1,2,3,4-tetrahydroisoquinolin-6-yl)amino)-2,3-dihydro-1H-pyrazolo[3,4-d]pyrimidin-1-yl)pyridin-2-yl)cyclopropane-1-carbonitrile]?
IC50 (WEE1 kinase enzyme): 13 nM; IC50 (A427 cells): 660 nM; IC50 (PKMYT1 kinase): 691 nM

With `CCn1c(=O)c2cnc(Nc3ccc4c(c3)CCNC4(C)C)nc2n1-c1cccc(C2(C#N)CC2)n1` [1.39, 1-(6-(6-(1,1-dimethyl-1,2,3,4-tetrahydroisoquinolin-6-ylamino)-2-ethyl-3-oxo-2,3-dihydro-1H-pyrazolo[3,4-d]pyrimidin-1-yl)pyridin-2-yl)cyclopropanecarbonitrile] as the compound, how does the IC50 (WEE1 kinase enzyme) read?
Its IC50 is 1 nM.

And the IC50 (A427 cells)?
The IC50 was 510 nM.

With `CCn1c(=O)c2cnc(Nc3ccc4c(c3)CNCC4(C)C)nc2n1-c1cccc(C2(C#N)CC2)n1` [1.40, 1-(6-(6-((4,4-dimethyl-1,2,3,4-tetrahydroisoquinolin-7-yl)amino)-2-ethyl-3-oxo-2,3-dihydro-1H-pyrazolo[3,4-d]pyrimidin-1-yl)pyridin-2-yl)cyclopropane-1-carbonitrile] as the compound, how does the IC50 (WEE1 kinase enzyme) read?
Its IC50 is 4 nM.

And the IC50 (PKMYT1 kinase)?
The IC50 was 121 nM.

Which results are given for `CCn1c(=O)c2cnc(Nc3ccc4c(c3)CCNC43CC3)nc2n1-c1cccc(C2(C#N)CC2)n1` [1.42, 1-(6-(6-(2′,3′-dihydro-1^1H-spiro[cyclopropane-1,4′-isoquinoline]-7′-ylamino)-2-ethyl-3-oxo-2,3-dihydro-1H-pyrazolo[3,4-d]pyrimidin-1-yl)pyridin-2-yl)cyclopropanecarbonitrile]?
IC50 (WEE1 kinase enzyme): 1 nM; IC50 (A427 cells): 255 nM

With `CC(C)n1c(=O)c2cnc(Nc3ccc4c(c3)CNCC4)nc2n1-c1cccc(C2(C#N)CC2)n1` [1.44, 1-(6-(2-isopropyl-3-oxo-6-((1,2,3,4-tetrahydroisoquinolin-7-yl)amino)-2,3-dihydro-1H-pyrazolo[3,4-d]pyrimidin-1-yl)pyridin-2-yl)cyclopropane-1-carbonitrile] as the compound, how does the IC50 (WEE1 kinase enzyme) read?
Its IC50 is 3 nM.

What about the IC50 (A427 cells) of the same compound?
Its IC50 is 892 nM.

And the IC50 (PKMYT1 kinase)?
Its IC50 is 1170 nM.

`CCn1c(=O)c2cnc(Nc3ccc4c(c3)CCNC4(C)C)nc2n1-c1ccnc(C2(C#N)CC2)c1` [1.63, 1-(4-(6-((1,1-dimethyl-1,2,3,4-tetrahydroisoquinolin-6-yl)amino)-2-ethyl-3-oxo-2,3-dihydro-1H-pyrazolo[3,4-d]pyrimidin-1-yl)pyridin-2-yl)cyclopropane-1-carbonitrile] was tested. Which IC50 (WEE1 kinase enzyme) did it give?
Its IC50 is 18 nM.

What about the IC50 (A427 cells) of the same compound?
Its IC50 is 17200 nM.

What does the source list for `CC(C)n1c(=O)c2cnc(Nc3ccc4c(c3)CCNC4)nc2n1-c1ccnc(C2(C#N)CC2)c1` [1.67, 1-(4-(2-isopropyl-3-oxo-6-(1,2,3,4-tetrahydroisoquinolin-6-ylamino)-2,3-dihydro-1H-pyrazolo[3,4-d]pyrimidin-1-yl)pyridin-2-yl)cyclopropanecarbonitrile]?
IC50 (WEE1 kinase enzyme): 15 nM; IC50 (A427 cells): 2580 nM; IC50 (PKMYT1 kinase): 2900 nM

`CCn1c(=O)c2cnc(Nc3ccc4c(c3)CNCC4)nc2n1-c1cccc(C2(CF)CC2)n1` [1.86, 2-ethyl-1-(6-(1-(fluoromethyl)cyclopropyl)pyridin-2-yl)-6-((1,2,3,4-tetrahydroisoquinolin-7-yl)amino)-1,2-dihydro-3H-pyrazolo[3,4-d]pyrimidin-3-one] was tested. Which IC50 (WEE1 kinase enzyme) did it give?
The IC50 was 2 nM.

And the IC50 (A427 cells)?
Its IC50 is 685 nM.

And the IC50 (PKMYT1 kinase)?
Its IC50 is 4200 nM.

With `CC(C)n1c(=O)c2cnc(Nc3ccc4c(c3)CCNC4)nc2n1-c1cccc(C2(CF)CC2)n1` [1.91, 1-(6-(1-(fluoromethyl)cyclopropyl)pyridin-2-yl)-2-isopropyl-6-((1,2,3,4-tetrahydroisoquinolin-6-yl)amino)-1,2-dihydro-3H-pyrazolo[3,4-d]pyrimidin-3-one] as the compound, how does the IC50 (WEE1 kinase enzyme) read?
Its IC50 is 3 nM.

What about the IC50 (PKMYT1 kinase) of the same compound?
Its IC50 is 6920 nM.

For `CC(C)n1c(=O)c2cnc(Nc3ccc4c(c3)CNCC4)nc2n1-c1ccc(F)c(C(C)(C)O)n1` [1.250, 1-(5-fluoro-6-(2-hydroxypropan-2-yl)pyridin-2-yl)-2-isopropyl-6-((1,2,3,4-tetrahydroisoquinolin-7-yl)amino)-1,2-dihydro-3H-pyrazolo[3,4-d]pyrimidin-3-one], which IC50 (WEE1 kinase enzyme) is on record?
The IC50 was 8 nM.

What about the IC50 (PKMYT1 kinase) of the same compound?
Its IC50 is 13500 nM.

Which results are given for `CC(C)n1c(=O)c2cnc(Nc3ccc4c(c3)CCNC4(C)C)nc2n1-c1ccc(F)c(C(C)(C)O)n1` [1.251, 6-((1,1-dimethyl-1,2,3,4-tetrahydroisoquinolin-6-yl)amino)-1-(5-fluoro-6-(2-hydroxypropan-2-yl)pyridin-2-yl)-2-isopropyl-1,2-dihydro-3H-pyrazolo[3,4-d]pyrimidin-3-one]?
IC50 (WEE1 kinase enzyme): 7 nM; IC50 (A427 cells): 12400 nM; IC50 (PKMYT1 kinase): 6690 nM

What does the source list for `CC(C)n1c(=O)c2cnc(Nc3ccc4c(c3)CNCC43CC3)nc2n1-c1ccc(F)c(C(C)(C)O)n1` [1.254, 6-((2′,3′-dihydro-1′H-spiro[cyclopropane-1,4′-isoquinolin]-7′-yl)amino)-1-(5-fluoro-6-(2-hydroxypropan-2-yl)pyridin-2-yl)-2-isopropyl-1,2-dihydro-3H-pyrazolo[3,4-d]pyrimidin-3-one]?
IC50 (WEE1 kinase enzyme): 140 nM; IC50 (PKMYT1 kinase): 3560 nM

With `CCn1c(=O)c2cnc(Nc3ccc4c(c3)CCNC4)nc2n1-c1ccc(F)c(C(C)(C)O)n1` [1.261, 2-ethyl-1-(5-fluoro-6-(2-hydroxypropan-2-yl)pyridin-2-yl)-6-((1,2,3,4-tetrahydroisoquinolin-6-yl)amino)-1,2-dihydro-3H-pyrazolo[3,4-d]pyrimidin-3-one] as the compound, how does the IC50 (WEE1 kinase enzyme) read?
Its IC50 is 9 nM.

And the IC50 (A427 cells)?
The IC50 was 900 nM.

What about the IC50 (PKMYT1 kinase) of the same compound?
Its IC50 is 4540 nM.

For `CCn1c(=O)c2cnc(Nc3ccc4c(c3)CNCC4)nc2n1-c1ccc(F)c(C(C)(C)O)n1` [1.262, 2-ethyl-1-(5-fluoro-6-(2-hydroxypropan-2-yl)pyridin-2-yl)-6-((1,2,3,4-tetrahydroisoquinolin-7-yl)amino)-1,2-dihydro-3H-pyrazolo[3,4-d]pyrimidin-3-one], which IC50 (WEE1 kinase enzyme) is on record?
Its IC50 is 8 nM.

What about the IC50 (PKMYT1 kinase) of the same compound?
The IC50 was 16800 nM.

Which IC50 (PKMYT1 kinase) does the source give for `CC(C)n1c(=O)c2cnc(Nc3ccc4c(c3)CNCC4)nc2n1-c1nc(C(C)(C)C#N)ccc1F` [1.322, 2-(5-fluoro-6-(2-isopropyl-3-oxo-6-(1,2,3,4-tetrahydroisoquinolin-7-ylamino)-2,3-dihydro-1H-pyrazolo[3,4-d]pyrimidin-1-yl)pyridin-2-yl)-2-methylpropanenitrile] here?
The IC50 was 7490 nM.

With `CCn1c(=O)c2cnc(Nc3ccc4c(c3)CCNC4(C)C)nc2n1-c1nc(C(C)(C)C#N)ccc1F` [1.335, 2-(6-(6-(1,1-dimethyl-1,2,3,4-tetrahydroisoquinolin-6-ylamino)-2-ethyl-3-oxo-2,3-dihydro-1H-pyrazolo[3,4-d]pyrimidin-1-yl)-5-fluoropyridin-2-yl)-2-methylpropanenitrile] as the compound, how does the IC50 (WEE1 kinase enzyme) read?
Its IC50 is 5 nM.

And the IC50 (A427 cells)?
The IC50 was 4730 nM.
